Experimental data: patent publication US6355799B1, “Substituted benzene compounds, process for their preparation, and herbicidal and defoliant compositions containing them” (ISK Americas Incorporated, priority 1997, dated 2002)

Legend:
Type in all cases: in vivo
[1] = tested on: field corn (Zea mays L., var. Dekalb 535, CORN); experiment: Pre-emerge test, crop safety; conditions: crop damage, pre-emerge, phytotoxicity rating 0-100 at 14 days after application
Method in brief: (§1)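 Compounds in acetone were track-sprayed at 15-1000 g ai/ha (187 l/ha) on sandy loam pots: pre-emerge one day after seeding, post-emerge at 2-3 leaf stage with 0.25% v/v non-ionic surfactant. Phytotoxicity was rated 14 days later on a 0 (no damage) to 100 (complete death) scale.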

[2] = tested on: upland rice (Oryza sp., var. Tebonnet, RICE); experiment: Pre-emerge test, crop safety; conditions: crop damage, pre-emerge, phytotoxicity rating 0-100 at 14 days after application
Method in brief: as §1

[3] = tested on: redroot pigweed (Amaranthus retroflexus, AMARE); experiment: Pre-emerge test, greenhouse herbicide activity screening; conditions: pre-emerge, phytotoxicity rating 0-100 at 14 days after application
Method in brief: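 Compounds in acetone were track-sprayed at 187 l/ha, 15–1000 g ai/ha, onto sandy loam pots. Pre-emerge seeds were sown one day before spraying, with surface watering afterwards. Post-emerge plants were at the 2–3 leaf stage and sprayed with 0.25% v/v non-ionic surfactant. Injury was rated 0–100 at 14 days.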

[4] = tested on: lambsquarters (Chenopodium album, CHEAL); experiment: Post-emerge test, greenhouse herbicide activity screening; conditions: post-emerge, phytotoxicity rating 0-100 at 14 days after application
Method in brief: (§2)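 Compounds in acetone were track-sprayed at 15–1000 g ai/ha: pre-emergence onto soil sown the previous day, then top-watered to incorporate and later bottom-watered; post-emergence onto 2–3 leaf plants with 0.25% v/v surfactant, bottom-watered only. Ratings on a 0–100 phytotoxicity scale were taken at day 14.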

[5] = tested on: green foxtail (Setaria viridis, SETVI); experiment: as above; conditions: post-emerge, phytotoxicity rating 0-100 at 14 days after application
Method in brief: as §2

[6] = tested on: sicklepod (Cassia obtusifolia, CASOB); experiment: as above; conditions: post-emerge, phytotoxicity rating 0-100 at 14 days after application
Method in brief: as §2

[7] = tested on: redroot pigweed (Amaranthus retroflexus, AMARE); experiment: as above; conditions: post-emerge, phytotoxicity rating 0-100 at 14 days after application
Method in brief: as §2

[8] = tested on: barnyardgrass (Echinochloa crus-galli, ECHCG); experiment: as above; conditions: post-emerge, phytotoxicity rating 0-100 at 14 days after application
Method in brief: as §2

[9] = tested on: velvetleaf (Abutilon theophrasti, ABUTH); experiment: as above; conditions: post-emerge, phytotoxicity rating 0-100 at 14 days after application
Method in brief: as §2

[10] = tested on: ivyleaf morningglory (Ipomoea hederacea, IPOHE); experiment: as above; conditions: post-emerge, phytotoxicity rating 0-100 at 14 days after application
Method in brief: as §2

[11] = tested on: johnsongrass (Sorghum halepense, SORHA); experiment: as above; conditions: post-emerge, phytotoxicity rating 0-100 at 14 days after application
Method in brief: as §2

[12] = tested on: large crabgrass (Digitaria sanguinalis, DIGSA); experiment: as above; conditions: post-emerge, phytotoxicity rating 0-100 at 14 days after application
Method in brief: as §2

[13] = tested on: field corn (Zea mays L., var. Dekalb 535, CORN); experiment: Post-emerge test, crop safety; conditions: post-emerge, crop damage rating 0-100 at 14 days after application
Method in brief: (§3)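 Applied at 15–1000 g ai/ha from acetone in 187 l/ha spray volume. Post-emergence applications included 0.25% v/v non-ionic surfactant and reached plants sown 8–21 days before. Pre-emergence applications were incorporated by surface watering. Efficacy or crop damage was rated on a 0–100 scale after 14 days.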

[14] = tested on: upland rice (Oryza sp., var. Tebonnet, RICE); experiment: Post-emerge test, crop safety; conditions: post-emerge, crop damage rating 0-100 at 14 days after application
Method in brief: as §3

[15] = tested on: lambsquarters (Chenopodium album, CHEAL); experiment: Pre-emerge test, greenhouse herbicide activity screening; conditions: pre-emerge, phytotoxicity rating 0-100 at 14 days after application
Method in brief: as §3

[16] = tested on: green foxtail (Setaria viridis, SETVI); experiment: as above; conditions: pre-emerge, phytotoxicity rating 0-100 at 14 days after application
Method in brief: as §3

[17] = tested on: sicklepod (Cassia obtusifolia, CASOB); experiment: as above; conditions: pre-emerge, phytotoxicity rating 0-100 at 14 days after application
Method in brief: as §3

[18] = tested on: barnyardgrass (Echinochloa crus-galli, ECHCG); experiment: as above; conditions: pre-emerge, phytotoxicity rating 0-100 at 14 days after application
Method in brief: as §3

[19] = tested on: velvetleaf (Abutilon theophrasti, ABUTH); experiment: as above; conditions: pre-emerge, phytotoxicity rating 0-100 at 14 days after application
Method in brief: as §3

[20] = tested on: ivyleaf morningglory (Ipomoea hederacea, IPOHE); experiment: as above; conditions: pre-emerge, phytotoxicity rating 0-100 at 14 days after application
Method in brief: as §3

[21] = tested on: johnsongrass (Sorghum halepense, SORHA); experiment: as above; conditions: pre-emerge, phytotoxicity rating 0-100 at 14 days after application
Method in brief: as §3

[22] = tested on: large crabgrass (Digitaria sanguinalis, DIGSA); experiment: as above; conditions: pre-emerge, phytotoxicity rating 0-100 at 14 days after application
Method in brief: as §3

Structure (SMILES): COc1c(Cl)cc(F)c(N2C(=O)C3=C(CCCC3)C2=O)c1N [8-7]
- Pre-emerge Herbicidal Activity CORN ([1]; rate 63 g ai/ha): 0
- Pre-emerge Herbicidal Activity CORN ([1]; rate 250 g ai/ha): 10
- Pre-emerge Herbicidal Activity RICE ([2]; rate 63 g ai/ha): 0
- Pre-emerge Herbicidal Activity RICE ([2]; rate 250 g ai/ha): 0
- Pre-emerge Herbicidal Activity AMARE ([3]; rate 63 g ai/ha): 99
- Pre-emerge Herbicidal Activity AMARE ([3]; rate 250 g ai/ha): 100
- Post-emerge Herbicidal Activity CHEAL ([4]; 63 g ai/ha): 95
- Post-emerge Herbicidal Activity CHEAL ([4]; 250 g ai/ha): 99
- Post-emerge Herbicidal Activity SETVI ([5]; 63 g ai/ha): 0
- Post-emerge Herbicidal Activity SETVI ([5]; 250 g ai/ha): 90
- Post-emerge Herbicidal Activity CASOB ([6]; 63 g ai/ha): 0
- Post-emerge Herbicidal Activity CASOB ([6]; 250 g ai/ha): 90
- Post-emerge Herbicidal Activity AMARE ([7]; 63 g ai/ha): 95
- Post-emerge Herbicidal Activity AMARE ([7]; 250 g ai/ha): 100
- Post-emerge Herbicidal Activity ECHCG ([8]; 63 g ai/ha): 0
- Post-emerge Herbicidal Activity ECHCG ([8]; 250 g ai/ha): 20
- Post-emerge Herbicidal Activity ABUTH ([9]; 63 g ai/ha): 95
- Post-emerge Herbicidal Activity ABUTH ([9]; 250 g ai/ha): 100
- Post-emerge Herbicidal Activity IPOHE ([10]; 63 g ai/ha): 10
- Post-emerge Herbicidal Activity IPOHE ([10]; 250 g ai/ha): 70
- Post-emerge Herbicidal Activity SORHA ([11]; 63 g ai/ha): 0
- Post-emerge Herbicidal Activity SORHA ([11]; 250 g ai/ha): 0
- Post-emerge Herbicidal Activity DIGSA ([12]; 63 g ai/ha): 0
- Post-emerge Herbicidal Activity DIGSA ([12]; 250 g ai/ha): 10
- Post-emerge Herbicidal Activity CORN ([13]; 63 g ai/ha): 10
- Post-emerge Herbicidal Activity CORN ([13]; 250 g ai/ha): 10
- Post-emerge Herbicidal Activity RICE ([14]; 63 g ai/ha): 0
- Post-emerge Herbicidal Activity RICE ([14]; 250 g ai/ha): 90
- Pre-emerge Herbicidal Activity CHEAL ([15]; rate 63 g ai/ha): 95
- Pre-emerge Herbicidal Activity CHEAL ([15]; rate 250 g ai/ha): 100
- Pre-emerge Herbicidal Activity SETVI ([16]; rate 63 g ai/ha): 95
- Pre-emerge Herbicidal Activity SETVI ([16]; rate 250 g ai/ha): 99
- Pre-emerge Herbicidal Activity CASOB ([17]; rate 63 g ai/ha): 0
- Pre-emerge Herbicidal Activity CASOB ([17]; rate 250 g ai/ha): 0
- Pre-emerge Herbicidal Activity ECHCG ([18]; rate 63 g ai/ha): 0
- Pre-emerge Herbicidal Activity ECHCG ([18]; rate 250 g ai/ha): 70
- Pre-emerge Herbicidal Activity ABUTH ([19]; rate 63 g ai/ha): 100
- Pre-emerge Herbicidal Activity ABUTH ([19]; rate 250 g ai/ha): 100
- Pre-emerge Herbicidal Activity IPOHE ([20]; rate 63 g ai/ha): 0
- Pre-emerge Herbicidal Activity IPOHE ([20]; rate 250 g ai/ha): 0
- Pre-emerge Herbicidal Activity SORHA ([21]; rate 63 g ai/ha): 10
- Pre-emerge Herbicidal Activity SORHA ([21]; rate 250 g ai/ha): 70
- Pre-emerge Herbicidal Activity DIGSA ([22]; rate 63 g ai/ha): 50
- Pre-emerge Herbicidal Activity DIGSA ([22]; rate 250 g ai/ha): 80
